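These data come from cells grown in 96-well plates and exposed to compound for 48 hours at five concentrations. GI50 marks 50% less growth. Definition used: TGI = concentration required for complete inhibition of growth.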
Experiments:
Assay in all cases: inhibition of tumour cell growth, NCI panel, 48 h
[1] = tested on: A498 renal
[2] = tested on: CCRF-CEM leukemia
[3] = tested on: PC-3 prostate
[4] = tested on: UACC-257 melanoma
[5] = tested on: DU-145 prostate
[6] = tested on: KM12 colon
[7] = tested on: OVCAR-4 ovarian
[8] = tested on: SNB-75 CNS
[9] = tested on: HCT-15 colon
[10] = tested on: UO-31 renal
[11] = tested on: MCF7 breast
[12] = tested on: IGROV1 ovarian
[13] = tested on: T-47D breast
[14] = tested on: SW-620 colon
[15] = tested on: SN12C renal
[16] = tested on: HCT-116 colon
[17] = tested on: TK-10 renal
[18] = tested on: NCI-H226 lung
[19] = tested on: RXF 393 renal
[20] = tested on: SK-OV-3 ovarian
[21] = tested on: NCI-H522 lung
[22] = tested on: RPMI-8226 leukemia
[23] = tested on: MDA-MB-231 breast
[24] = tested on: SNB-19 CNS
[25] = tested on: SR leukemia
[26] = tested on: MALME-3M melanoma
[27] = tested on: CAKI-1 renal
[28] = tested on: LOX IMVI melanoma
[29] = tested on: NCI/ADR-RES ovarian

`CC/C=C\CCC/C=C1/C(=O)C=C[C@@H]1C/C=C\CCCC(=O)O` was tested, and the TGI [1] was 33.9 µM, the GI50 [2] was 2840 nM and the TGI [2] was 16.2 µM. For the same molecule, the GI50 [3] was 3.64 µM, the TGI [3] was 9.82 µM and the GI50 [4] was 10.5 µM. For the same molecule, the TGI [4] was 23.7 µM, the GI50 [5] was 11.3 µM and the TGI [5] was 23.8 µM. For the same molecule, the GI50 [6] was 2460 nM, the TGI [6] was 6.62 µM and the GI50 [7] was 6.93 µM. It also gave a TGI [7] of 22.1 µM, a GI50 [8] of 18 µM and a TGI [8] of 44.9 µM. The GI50 [9] was 1930 nM, the TGI [9] was 4.52 µM and the GI50 [10] was 2160 nM. For the same molecule, the TGI [10] was 5.58 µM, the GI50 [11] was 3.07 µM and the TGI [11] was 16.8 µM. For the same molecule, the GI50 [12] was 4.12 µM, the TGI [12] was 15.9 µM and the GI50 [13] was 10.1 µM. For the same molecule, the TGI [13] was 23.3 µM, the GI50 [14] was 4.46 µM and the TGI [14] was 18 µM. It also gave a GI50 [15] of 3.05 µM, a TGI [15] of 8.5 µM and a GI50 [16] of 2530 nM. The TGI [16] was 5.79 µM, the GI50 [17] was 5.04 µM and the TGI [17] was 17.2 µM. The GI50 [18] was 4.35 µM, the TGI [18] was 30.1 µM and the GI50 [19] was 3.68 µM. It also gave a TGI [19] of 10.3 µM, a GI50 [20] of 14.4 µM and a TGI [20] of 31.3 µM. The GI50 [21] was 2020 nM, the TGI [21] was 4.78 µM and the GI50 [22] was 3.28 µM. It also gave a TGI [22] of 11 µM, a GI50 [23] of 5.55 µM and a TGI [23] of 22.5 µM. It also gave a GI50 [24] of 5.45 µM, a TGI [24] of 20 µM and a GI50 [25] of 1920 nM. It also gave a TGI [25] of 8.57 µM, a GI50 [26] of 8.66 µM and a TGI [26] of 26.6 µM. The GI50 [27] was 3.43 µM, the TGI [27] was 11.9 µM and the GI50 [28] was 1460 nM. The TGI [28] was 3.22 µM, the GI50 [29] was 2960 nM and the TGI [29] was 11.8 µM.

— PubChem BioAssay (NCI)
